Earlier results on one compound are cited in patent US20120009644A1, “Tissue Implants for Implantation and Methods for Preparing the Same” (CRYOLIFE, INC., priority 2010, published 2012).

The structures appear in SMILES notation.

The series has as its system sensitive bacteria. The conditions noted are these: literature review.

For `NCC[C@H](O)C(=O)N[C@@H]1C[C@H](N)[C@@H](O[C@H]2O[C@H](CN)[C@@H](O)[C@H](O)[C@H]2O)[C@H](O)[C@H]1O[C@H]1O[C@H](CO)[C@@H](O)[C@H](N)[C@H]1O` [amikacin], the “minimum inhibitory concentration against sensitive bacteria (MIC) range” value is 0.125 to 32 µg/mL.
